# According to patent publication US8524744B2, “Arylamine ketones, their preparation methods, the pharmaceutical composition containing them and their use” (Institute of Mataria Medica, Chinese Academy of Medical …, priority 2004, dated 2013):
# Where a name gives a salt, the structure may show the parent alone.
# Legend:
# [1] = tested on: polymorphonuclear leucocytes from rat pleural cavity; assay: release of β-glucuronidase by polymorphonuclear leucocytes from rat pleural cavity in vitro (PAF as irritant); assay type: cell-based
# Outline: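 Carrageenan-elicited pleural PMNs from Wistar rats (2.5×10^6 cells/ml, Dulbecco's buffer) were incubated with compound 15 min at 37° C, then cytochalasin B 5 min, then PAF 5 min. β-Glucuronidase in supernatant was assayed with phenolphthalein-glucuronic acid, 18 h at 37° C, OD 550 nm after NaOH.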
# [2] = tested on: macrophages from mouse peritoneal cavity; assay: chemotaxis of macrophages from mouse peritoneal cavity induced by PAF; assay type: cell-based; settings: Macrophage, 2 hr, read-out: IC50, inhibition of chemotaxis
# Experimental: 4% of sodium mercaptoethanol was injected into C57BL/6 mouse peritoneal cavity to induce macrophages. The cells in peritoneal cavity were collected after injection for 3-4 days. 27 μl of irritant was added into the well at low part of the chemotaxis plate. The filter membrane was covered on the wells and the top part of the plate was assembled on the filter. 55 μl of cells suspension with various concentrations of the compounds or solvent was added into the well at top part of the plate. The plate was placed into incubater with 5% CO2 at 37° C. for 2 hr. The filter was taken out, stained by hematoxylin and dehydrated. The cells migrated into the other side of the filter was counted by microscope.
# [3] = tested on: mouse ear edema induced by croton oil; assay: mouse ear edema induced by croton oil; assay type: in vivo; settings: orally, 50 mg·kg^−1, Kunming mice
# Experimental: Kuming mice (male, 18-22 g) were randomly divided into two groups (treatment and control) with 10 animals for each group. The animals were orally administrated with compounds or solvent, respectively. 1 hr later, 50 μl of 2% croton oil was smeared on the two sides of mouse left ear. After 4 hr the mice were sacrificed by cervical vertebra displacement. The two ears were cut off and the central sections were excised using a punch with a diameter of 8 mm and weighed. Edema was quantified as the weight difference between the two sections.
# [4] = tested on: mouse paw swelling induced by carrageenan; assay: mouse paw swelling induced by carrageenan; assay type: in vivo; settings: orally, 50 mg·kg^−1, Kunming mice
# Experimental: Kunming mice (male, 18-22 g) were randomly divided into two groups (treatment and control) with 10 animals for each group. The animals were orally administrated with compounds or solvent, respectively. 1 hr later, 50 μl of 1% carrageenan was intracutaneously injected into the sole of right posterior foot. After 4 hr the animals were sacrificed by displacing cervical vertebra. The two paws were cut off at ankle joint and weighed. The swelling was evaluated by the difference of the weights of two paws.
# [5] = tested on: rat granuloma induced by cotton ball; assay: rat granuloma induced by cotton ball; assay type: in vivo; settings: orally, 100 mg·kg^−1, 7 days, Wistar rats
# Experimental: Wistar rats (male, 165±15 g) were randomly divided into two groups (treatment and control) with 10 animals for each group. 10 mg of steriled cotton ball was planted into the two groins of the rat under the anaesthetized by ether. The animals were orally administrated with the compound for 7 days. At seventh day the cotton ball was taken out, dried by the oven and weighed. The hyperplasia of granuloma was evaluated by the increase of weight of dried cotton ball.
# [6] = tested on: adjuvant arthritis in rat; assay: adjuvant arthritis in rat (therapeutic effect); assay type: in vivo; settings: orally 100 mg·kg^−1 during 19-25th day, SD rats
# Experimental: SD rats (male, 190±10 g) were randomly divided into two groups (treatment and control) with 10 animals for each group. At 0 day 0.1 ml of Freund's complete adjuvant was intracutaneously injected into the right posterior foot. For therapeutic experiment the animals were orally administrated with the compound or solvent during 19-25th day. The perimeter of two ankle joint was measured and the inflammation of anterior foot, ear and tail were judged by scoring for every 3 days until 28 th day.
# [7] = tested on: angiogenesis of the chronic granulomatous air pouch in mice; assay: angiogenesis of the chronic granulomatous air pouch in mice; assay type: in vivo, mouse; settings: orally
# Experimental: 3 ml of air was injected into the dorsal subcutaneous tissue. 24 hr later, 0.5 ml of 0.1% croton oil in Freund's complete adjuvant was injected into the air pouch. Meanwhile the compound or solvent was orally administrated everyday. At sixth day the mice were anaesthetized and kept at 40° C. for 10 min. 1 ml of 1% carmine red containing 5% gelatin was injected into the tail vein. The animal was kept at 0-4° C. for 2-3 hr. The air-pouch tissue was detached, dried in oven at 56° C. for 48 hr, weighed and cut to small pieces. 2 ml of digesting fluid was added into the tissue. The carmine red was solved by NaOH (5 mol·L^−1). The supernatant was isolated and filtered. The absorbance was measured at 540 nm. The content of carmine red was calculated according to the correct curve.
# TNF-α in serum = TNF-α in serum of rat with arthritis induced by type II collagen (ELISA); assay type: in vivo; settings: Dose 100 mg · kg^−1 × 13 d, orally
# Experimental: (§1) 0.1 ml of type II H collagen (2 mg·ml^−1) was intracutaneously injected into the hind foot of Wistar rat (male, 100±10 g) (d0). Seven days later 0.1 ml of type II collagen was intracutaneously injected into the root of tail. At 19th day (d19) the animals inflamed were selected to supply the experiment and randomly divided into two groups. […] The perimeter of the ankle joint of two hind feet, weight of body was measured and the systemic inflammation (including the toes of front and hind feet, ears and tails) was judged by scoring every 3 days. At 41th day 40 μl of 0.2% type II collagen was intracutaneously injected into the right ear. Twenty-four hr later the edema level was evaluated by weighing the ponderance of ear piece (diameter: 8 mm). At 42th day the blood was collected by decapitating. The serum was separated by centrifugating. The contents of antibody for anti-type II collagen, cytokine TNF-α, IL-1β in serum were determined by ELISA kit.
# IgG in serum = assay: IgG (antibody for anti-type II collagen) in serum of rat with arthritis induced by type II collagen; assay type: in vivo; settings: Dose 100 mg · kg^−1 × 13 d, orally
# Experimental: as §1
smiles,measurement,setting,value
"CCOC(=O)C1CCN(CCC(=O)/C=C/c2ccc(Cl)cc2)CC1 [Compound 3, 5-[(4-Ethoxycarbonyl)piperidyl]-1-(4-chlorophenyl)-1-penten-3-one hydrochloride]",Inhibition (%) of β-glucuronidase release,"[1]; Dose 2 × 10^−6 mol · L^−1, Irritant 1 × 10^−7 mol · L^−1",142.96%
same,IC50,"[1]; Leucocyte, rat polymorphonuclear leucocytes",0.226 nM
same,IC50,[2],0.477 nM
same,Inhibition (%) of mouse ear edema,[3],33.52%
same,Inhibition (%) of mouse paw swelling,[4],32.52%
same,Inhibition (%) of rat granuloma,[5],37.93%
same,Inhibition (%) of adjuvant arthritis,[6]; 21th day,31.9%
same,Inhibition (%) of adjuvant arthritis,[6]; 23th day,49.3%
same,Inhibition (%) of adjuvant arthritis,[6]; 25th day,54.5%
same,Inhibition (%) of adjuvant arthritis,[6]; 27th day,59.3%
same,Inhibition (%) of angiogenesis (content of carmine red),[7]; Dose 12.5 mg · kg^−1 × 5 d,17.8%
same,Inhibition (%) of angiogenesis (content of carmine red),[7]; Dose 25 mg · kg^−1 × 5 d,20.6%
same,Inhibition (%) of angiogenesis (content of carmine red),[7]; Dose 50 mg · kg^−1 × 5 d,28.4%
same,inhibition (%) of production of TNF-α in serum,TNF-α in serum,49.3%
same,Inhibition (%) of production of IgG in serum,IgG in serum,38.4%
